Measurements reported in publication PMC2701686 (Analytical biochemistry, 2008).

Biological target: thyroid hormone receptor β (TRβ) (Homo sapiens, UniProt P10828)
Assay: biochemical

Sequence of thyroid hormone receptor β (TRβ) (P10828 82-456): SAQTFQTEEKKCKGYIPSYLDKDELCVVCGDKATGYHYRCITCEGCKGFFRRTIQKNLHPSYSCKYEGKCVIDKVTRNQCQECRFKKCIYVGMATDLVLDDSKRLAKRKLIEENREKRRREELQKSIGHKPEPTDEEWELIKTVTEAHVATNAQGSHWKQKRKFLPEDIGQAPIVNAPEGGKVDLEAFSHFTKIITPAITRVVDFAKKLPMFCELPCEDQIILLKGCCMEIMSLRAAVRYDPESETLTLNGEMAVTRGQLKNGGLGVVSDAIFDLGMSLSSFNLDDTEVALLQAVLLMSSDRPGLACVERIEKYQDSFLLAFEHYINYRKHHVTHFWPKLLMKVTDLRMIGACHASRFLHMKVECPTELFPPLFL
Sequence of thyroid hormone receptor β (TRβ) (P19793 whole entry partner): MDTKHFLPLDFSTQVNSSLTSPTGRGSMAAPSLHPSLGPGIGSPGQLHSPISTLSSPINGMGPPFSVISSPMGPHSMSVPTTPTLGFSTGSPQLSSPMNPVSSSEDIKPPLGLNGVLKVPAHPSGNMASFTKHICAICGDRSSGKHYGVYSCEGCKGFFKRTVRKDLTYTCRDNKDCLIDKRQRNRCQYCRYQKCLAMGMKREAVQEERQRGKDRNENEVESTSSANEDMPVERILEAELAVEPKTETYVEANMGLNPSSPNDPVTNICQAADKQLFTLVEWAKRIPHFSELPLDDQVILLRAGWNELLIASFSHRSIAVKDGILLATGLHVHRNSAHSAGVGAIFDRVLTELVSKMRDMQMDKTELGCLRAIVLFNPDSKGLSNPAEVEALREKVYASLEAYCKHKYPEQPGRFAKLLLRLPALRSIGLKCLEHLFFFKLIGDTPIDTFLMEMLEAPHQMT
Sequence of thyroid hormone receptor β (TRβ) (Q60974 2057-2453 partner): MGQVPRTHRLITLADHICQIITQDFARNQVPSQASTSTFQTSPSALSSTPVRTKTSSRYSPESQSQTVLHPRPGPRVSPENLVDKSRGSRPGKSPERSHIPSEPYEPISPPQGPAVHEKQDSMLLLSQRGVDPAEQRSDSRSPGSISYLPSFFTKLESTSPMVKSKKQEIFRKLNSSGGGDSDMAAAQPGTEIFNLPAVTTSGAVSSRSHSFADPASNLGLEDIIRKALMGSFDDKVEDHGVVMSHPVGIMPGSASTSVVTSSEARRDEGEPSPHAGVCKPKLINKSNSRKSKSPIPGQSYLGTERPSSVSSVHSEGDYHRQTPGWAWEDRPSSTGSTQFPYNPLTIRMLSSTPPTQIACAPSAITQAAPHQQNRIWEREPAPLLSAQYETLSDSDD
Sequence of thyroid hormone receptor β (TRβ) (Q9Y6Q9 627-829 partner): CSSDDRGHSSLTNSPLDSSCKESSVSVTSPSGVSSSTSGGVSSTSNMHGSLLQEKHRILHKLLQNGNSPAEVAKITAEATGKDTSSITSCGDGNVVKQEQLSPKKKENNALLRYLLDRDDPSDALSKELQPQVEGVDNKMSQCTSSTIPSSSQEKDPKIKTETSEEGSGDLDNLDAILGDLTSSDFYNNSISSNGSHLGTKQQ

Cc1cc(OCC(=O)O)cc(C)c1Cc1cc(C#Cc2ccc([N+](=O)[O-])cc2)c(O)c(C(C)C)c1 [NH-3, {4-[4-hydroxy-3’-isopropyl-5-(4-nitrophenylethynyl)benzyl]-3,5-dimethylphenoxy}acetic acid]
IC50: 1090 ± 80 nM
